Data published in US9416141B2 (University of Washington through its Center for …, priority 2012, dated 2016).
Where a name gives a salt, the structure may show the parent alone.

System: hair cells
Assay: Hair cell toxicity assay in zebrafish (neomycin-induced hair cell death, DASPEI staining of neuromasts)
Assay type: in vivo
Details: Danio rerio; for Emax at 25 µM: maximum observed @ 25 μM test compound; for EC50: zebrafish larvae 5-7 dpf, 1 h pre-treatment, then 200 micromolar neomycin + test compound 30 min, read-out: HC50 (concentration that would produce 50% hair cell survival); for Emax at 8.3 µM: maximum observed @ 8.3 μM test compound; for Emax at 2.8 µM: maximum observed @ 2.8 μM test compound
Procedure: Zebrafish are bred and newly fertilized embryos are collected the week prior and raised at 28.5° C. in petri dishes containing embryo medium. Newly hatched free-swimming larvae are fed paramecium and dry fish food at 4 days post fertilization (dpf) with lights on. For treatment, fish 5-7 dpf are transferred to cell culture baskets and place within a well of a 6-well plate containing 7 milliliters of 1× embryo medium. Typically, tests are done with ten fish per basket but work well with up to 50 fish. All treatment and wash volumes are 7 milliliters. • 1. Fish are pre-treated with test compound for 1 hour. […] Treat with 200 micromolar neomycin (neomycin sulfate, Sigma, St. Louis, Mo., catalog #N1142)+test compound for 30 minutes. • 3. Rinse fish briefly 4 times in embryo medium and add 700 μl of 0.05% DASPEI (2-{4-(dimethylamino)styryl}-N-ethylpyridinium iodide, Molecular Probes, Eugene, Oreg.) and allowed to stain for 15 minutes. • 4. Rinse twice in embryo medium and add 350 μl MS222 (0.55 ug/ml final concentration, 3-aminobenzoic acid ethyl ester, methansulfoneate salt, Sigma, St. Louis, Mo.) to anesthetize. • 5. View with epifluorescence dissecting microscope equipped with a DAPSEI filter set (excitation […], Chroma Technologies, Brattleboro, Vt.). For assessment of initial dose response curves, fish are transferred to wide depression slide with wide-bore pipette. The DASPEI staining of ten neuromasts (SO1, SO2, IO1, IO2, IO3, IO4, M2, MI1, MI2 and O2) on one side of an animal are evaluated. Each neuromast is scored for presence of DASPEI staining (score=2), reduced DASPEI staining (score=1) or absence of DASPEI staining (score=0). Total scores for an animal are tabulated, to give a composite score that can range from 0 to 20. Average scores and standard deviations are calculated for animals in each treatment group. Scores are normalized to control group (vehicle only, no drug, no neomycin) and expressed as % hair cell survival. HCmax is the maximum protection (hair cell survival) observed. • 6. If at least 50% hair cells survive, the HC50 (concentration that would produce 50% hair cell survival) is calculated as a linear extrapolation from the nearest concentrations of protective drug that produce hair cell survival below and above 50%. If less than 50% hair cells survive, the HC50 is not determined. 1× embryo media (standard lab EM): • 1 mM MgSO4, • 0.15 mM KH2PO4, • 0.05 mM Na2HPO4, • 1 mM CaCl2, • 0.5 mM KCl • 15 mM NaCl • 0.7 mM NaHCO3

[1] = 200 micromolar neomycin, read-out: Max HC Protection (HCmax, % hair cell survival)

SMILES	Emax at 25 µM [1] [%]	EC50 [nM]	further results
CC(=O)NCCN1CCc2c(sc(NC(=O)Nc3ccc(Cl)cc3)c2C(N)=O)C1 [Example 15, 6-(2-Acetamidoethyl)-2-[3-(4-chlorophenyl)ureido]-4,5,6,7-tetrahydrothieno[2,3-c]pyridine-3-carboxamide trifluoroacetate]	57	> 10000	–
CC(C)(C)OC(=O)C1CC([N+]2(C)CCc3c(sc(NC(=O)Nc4ccc(Cl)cc4)c3C(N)=O)C2)C1 (stereo not drawn) [Example 163, 6-[3-(tert-Butoxycarbonyl)cyclobutyl]-3-carbamoyl-2-[3-(4-chlorophenyl)ureido]-6-methyl-4,5,6,7-tetrahydrothieno[2,3-c]pyridin-6-ium iodide]	–	< 1000	Emax at 8.3 µM [1]: 88%
CCOC(=O)c1c(Nc2c(Nc3ccc(Cl)cc3)c(=O)c2=O)sc2c1CCN(CC)C2 [Example 110, Ethyl 2-({2-[(4-chlorophenyl)amino]-3,4-dioxocyclobut-1-en-1-yl}amino)-6-ethyl-4,5,6,7-tetrahydrothieno[2,3-c]pyridine-3-carboxylate hydrochloride]	69	> 10000	–
CC1(C[N+]2(C)CCc3c(sc(NC(=O)Nc4ccc(Cl)cc4)c3C(N)=O)C2)CC1 (stereo not drawn) [Example 196, 3-Carbamoyl-2-[3-(4-chlorophenyl)ureido]-6-methyl-6-[(1-methylcyclopropyl)methyl]-4,5,6,7-tetrahydrothieno[2,3-c]pyridin-6-ium trifluoroacetate]	–	< 1000	Emax at 2.8 µM [1]: 85%
C[N+]1(C2COC2)CCc2c(sc(NC(=O)Nc3ccc(Cl)cc3)c2C(N)=O)C1 (stereo not drawn) [Example 142, 3-Carbamoyl-2-[3-(4-chlorophenyl)ureido]-6-methyl-6-(oxetan-3-yl)-4,5,6,7-tetrahydrothieno[2,3-c]pyridin-6-ium iodide]	82	1000 to 10000	–
CC(C)[N+]1(C)CCc2c(sc(NC(=O)Nc3ccc(Cl)cc3)c2C(N)=O)C1 (stereo not drawn) [Example 191, 3-Carbamoyl-2-[3-(4-chlorophenyl)ureido]-6-isopropyl-6-methyl-4,5,6,7-tetrahydrothieno[2,3-c]pyridin-6-ium iodide]	–	< 1000	Emax at 8.3 µM [1]: 80%
CCN1CCc2c(sc(NC(=O)NC3CCCCC3)c2C(N)=O)C1 [Example 68, 2-(3-Cyclohexylureido)-6-ethyl-4,5,6,7-tetrahydrothieno[2,3-c]pyridine-3-carboxamide hydrochloride]	5	–	–
CCN1CCc2c(sc(NC(=O)Nc3ccc(C(=O)O)cc3)c2C(N)=O)C1 [Example 32, 4-[3-(3-Carbamoyl-6-ethyl-4,5,6,7-tetrahydrothieno[2,3-c]pyridin-2-yl)ureido]benzoic acid trifluoroacetate]	19	–	–
NC(=O)c1c(NC(=O)Nc2ccc(I)cc2)sc2c1CCN(CCCOCc1ccccc1)C2 [Example 207]	66	1000 to 10000	–
NC(=O)c1c(NC(=O)Nc2ccc(Cl)cc2)sc2c1CCN(CCO)C2 [Example 60, 2-[3-(4-Chlorophenyl)ureido]-6-(2-hydroxyethyl)-4,5,6,7-tetrahydrothieno[2,3-c]pyridine-3-carboxamide hydrochloride]	71	1000 to 10000	–
CC(C)(C)OC(=O)NCCCN1CCc2c(sc(NC(=O)Nc3ccc4ccccc4c3)c2C(N)=O)C1 [Example 206, tert-Butyl N-[3-(3-carbamoyl-2-{[(naphthalen-2-yl)carbamoyl]amino}-4H,5H,6H,7H-thieno[2,3-c]pyridin-6-yl)propyl]carbamate]	–	1000 to 10000	Emax at 6.3 µM (maximum observed @ 6.3 μM test compound, 200 micromolar neomycin, read-out: Max HC Protection (HCmax, % hair cell survival)): 88%
C[N+]1(CCC(N)=O)CCc2c(sc(NC(=O)Nc3ccc(Cl)cc3)c2C(N)=O)C1 (stereo not drawn) [Example 157, 6-(3-Amino-3-oxopropyl)-3-carbamoyl-2-[3-(4-chlorophenyl)ureido]-6-methyl-4,5,6,7-tetrahydrothieno[2,3-c]pyridin-6-ium iodide]	94	1000 to 10000	–
CCN1CCc2sc(NC(=O)Nc3ccc(Cl)cc3)c(C(N)=O)c2C1 [Example 116, 2-[3-(4-Chlorophenyl)ureido]-5-ethyl-4,5,6,7-tetrahydrothieno[3,2-c]pyridine-3-carboxamide hydrochloride]	82	1000 to 10000	–
CC(C)NC(=O)CCC[N+]1(C)CCc2c(sc(NC(=O)Nc3ccc(Cl)cc3)c2C(N)=O)C1 (stereo not drawn) [Example 166, 3-Carbamoyl-2-[3-(4-chlorophenyl)ureido]-6-[4-(isopropylamino)-4-oxobutyl]-6-methyl-4,5,6,7-tetrahydrothieno[2,3-c]pyridin-6-ium trifluoroacetate]	–	1000 to 10000	Emax at 2.8 µM [1]: 63%
CC(C1CCC1)[N+]1(C)CCc2c(sc(NC(=O)Nc3ccc(Cl)cc3)c2C(N)=O)C1 (racemic) [Example 203, (+/−)-3-Carbamoyl-2-[3-(4-chlorophenyl)ureido]-6-(1-cyclobutylethyl)-6-methyl-4,5,6,7-tetrahydrothieno[2,3-c]pyridin-6-ium chloride]	–	< 1000	Emax at 2.8 µM [1]: 75%
CC(C)(O)CN1CCc2c(sc(NC(=O)Nc3ccc(Cl)cc3)c2C(N)=O)C1 [Example 119, 2-[3-(4-chlorophenyl)ureido]-6-(2-hydroxy-2-methylpropyl)-4,5,6,7-tetrahydrothieno[2,3-c]pyridine-3-carboxamide]	65	1000 to 10000	–
CCN1CCc2c(sc(NC(=O)NCc3cccc(Cl)c3)c2C(N)=O)C1 [Example 75, 2-[3-(3-Chlorobenzyl)ureido]-6-ethyl-4,5,6,7-tetrahydrothieno[2,3-c]pyridine-3-carboxamide hydrochloride]	24	–	–
NC(=O)c1c(NC(=O)Nc2ccc(Cl)cc2)sc2c1CCN(CCCNC(=O)C1CC1)C2 [Example 215, 2-{[(4-chlorophenyl)carbamoyl]amino}-6-[3-(cyclopropylformamido)propyl]-4H,5H,6H,7H-thieno[2,3-c]pyridine-3-carboxamide]	95	1000 to 10000	–
CC(C)(C)OC(=O)CN1CCc2c(sc(NC(=O)Nc3ccc(Cl)cc3)c2C(N)=O)C1 [Example 58, tert-butyl 2-{3-carbamoyl-2-[3-(4-chlorophenyl)ureido]-4,5-dihydrothieno[2,3-c]pyridin-6(7H)-yl}acetate]	–	–	Emax at 2.8 µM [1]: 7%
CCN1CCc2c(sc(NC(=O)Nc3ccc(Cl)cc3)c2-c2nc(C)no2)C1 [Example 103, 1-(4-chlorophenyl)-3-[6-ethyl-3-(3-methyl-1,2,4-oxadiazol-5-yl)-4,5,6,7-tetrahydrothieno[2,3-c]pyridin-2-yl]urea hydrochloride]	–	–	Emax at 0.9 µM (maximum observed @ 0.9 μM test compound, 200 micromolar neomycin, read-out: Max HC Protection (HCmax, % hair cell survival)): 12%
NC(=O)c1c(NC(=O)Nc2ccc(Cl)cc2)sc2c1CCN(CCCNC(=O)c1ccccc1)C2 [Example 212, 2-{[(4-chlorophenyl)carbamoyl]amino}-6-[3-(phenylformamido)propyl]-4H,5H,6H,7H-thieno[2,3-c]pyridine-3-carboxamide]	103	1000 to 10000	–
NC(=O)c1c(NC(=O)Nc2ccc(Cl)cc2)sc2c1CCN(CCN1CCCCC1)C2 [Example 44, 2-[3-(4-chlorophenyl)ureido]-6-[2-(piperidin-1-yl)ethyl]-4,5,6,7-tetrahydrothieno[2,3-c]pyridine-3-carboxamide ditrifluoroacetate]	98	1000 to 10000	–
CCN1CCc2c(sc(NC(=O)Nc3cncc4ccccc34)c2C(N)=O)C1 [Example 81, 6-Ethyl-2-[3-(isoquinolin-4-yl)ureido]-4,5,6,7-tetrahydrothieno[2,3-c]pyridine-3-carboxamide dihydrochloride]	–	–	Emax at 8.3 µM [1]: 32%
CC[N+]1(C)CCc2c(sc(NC(=O)Nc3ccc(C(=O)c4ccccc4)cc3)c2C(N)=O)C1 (stereo not drawn) [Example 168, 2-[3-(4-Benzoylphenyl)ureido]-3-carbamoyl-6-ethyl-6-methyl-4,5,6,7-tetrahydrothieno[2,3-c]pyridin-6-ium iodide]	–	–	Emax at 2.8 µM [1]: 20%
CCN1CCc2c(sc(NC(=O)Nc3ccc(OC)cc3)c2C(N)=O)C1 [Example 230, 6-ethyl-2-{[(4-methoxyphenyl)carbamoyl]amino}-4H,5H,6H,7H-thieno[2,3-c]pyridine-3-carboxamide]	48	–	–
